Data reported in patent US20220243177A1, “METHODS OF CULTURING QUIESCENT HEMATOPOIETIC STEM CELLS AND TREATMENT METHODS” (priority 2019, published 2022).

Key:
[1] = tested on: MMP-low and MMP-high HSCs; assay: LT-HSCs maintenance assay (viability, DAPI exclusion); format: cell-based
Protocol: LT-HSCs Maintenance Assay: FACS-purified MMP-low and MMP-high HSCs cells were cultured in serum-free Stemspan medium supplemented with SCF (10 ng/mL) and TPO (20 ng/mL), cultured as single or 1,000 yells or 2,000 cells/well, and treated with ConA (10-100 nM), or 2-Deoxy-Glucose (2-DG; 5-60 mM), α-Cyano-4-hydroxycinnamic acid (CHC, 10 mM), or 0.5% DMSO, incubated at 37° C. for the indicated time. Cells were then washed twice in PBS, re-suspended in PBS containing 1 μg/ml DAPI, and analyzed by flow cytometry after DAPI exclusion.

HSCs of treated mice = assay: In vivo glycolytic inhibition; parameters: species or system mouse
Protocol: In vivo Glycolytic Inhibition. To assess the effect of inhibition of glycolysis on MMP in HSCs, mice received intraperitoneal injections of either PBS or 2-DG 750 mg/kg every other day for 6 days after which total BM cells […] cells were isolated and MMP analyzed by flow cytometry in HSCs.

[2] = tested on: MMP-low and MMP-high LT-HSCs transplanted into lethally irradiated mice; format: in vivo
Protocol: Competitive In Vivo Long-Term Reconstitution Assay: MMP-low and MMP-high HSCs (LSKCD150^+CD48^−, LT-HSC; MMP^low/high) were FACS purified from CD45.1 mice and transplanted at the indicated dose of test cells with 2×10^5 CD45.2 bone marrow cells into lethally irradiated CD45.2 recipients (12 Gy as a split dose, 6.5 and 5.5 Gy, 4 hours apart). Donor (CD45.1) and recipient (CD45.2) mice were 8-12 weeks old. HSC frequency was determined by the limiting dilution assay (Hu & Smith, “ELDA: Extreme Limiting Dilution Analysis for Comparing Depleted and Enriched Populations in Stem Cell and Other Assays,” J. Immunol. Methods 347:7 0-78 (2009), which is hereby incorporated by reference in its entirety) based on the number of mice with […] reconstitution (CD45.1) at 16 weeks.
To assay the effect of glycolytic inhibition of HSCs in a competitive in vivo long-term reconstitution assay: FACS-sorted MMP-low and MMP-high LT-HSCs (CD45.1) were mixed with 2×10^5 CD45.2 total bone marrow cells and injected into lethally irradiated CD45.2 recipients. After 2 days mice were divided into four groups, MMP-low and MMP-high groups treated with PBS or 2-Deoxy-Glucose (2-DG, 1000 mg/kg) every other day for 30 days. Reconstitution of donor CD45.1 cells and lineage distribution were monitored monthly by staining blood cells with antibodies against CD45.1, CD4, CD8 (T), B220 (B), CD11b and Gr-1 (myeloid) cells. For secondary transplantations, 2×10^6 BM cells from primary recipients were transplanted into lethally irradiated secondary recipients. Donor CD45.1 cells contribution and lineage distribution were tracked from the peripheral blood by flow cytometry.

HSCs (LSK CD150+CD48-) = assay: Mitochondrial membrane potential (TMRE) by flow cytometry; format: cell-based, mouse
Protocol: To measure mitochondrial membrane potential (“MMP”), Tetramethylrhodamine ethyl ester perchlorate (“TMRE”, 100 nM), which specifically accumulates within the mitochondrial matrix of live cells, was used in accordance with the manufacturer's instructions. In brief, cells were stained with the probe at 37° C. for 15 minutes post antibody staining, followed by washing and flow cytometry analysis or FACS purification. Probe responsiveness to MMP changes were tested using controls carbonyl cyanide 3-chlorophenylhydrazone (“CCCP”) and oligomycin, which decreased and increased fluorescence of TMRE respectively. MMP-low and MMP-high thresholds were determined as the lowest and highest 25% TMRE intensity HSCs. Reactive oxygen species (“ROS”) were measured using chloromethyl-dichlorodihydrofluorescein diacetate (“CM-H2DCFDA”) fluorescent probe as described in Rimmele et al., “Mitochondrial Metabolism in Hematopoietic Stem Cells Requires Functional FOXO3,”EMBO Rep. 16: 1164-1176 (2015); Yalcin et al., “ROS-Mediated Amplification of AKT/mTOR Signalling Pathway Leads to Myeloproliferative Syndrome in Foxo3(-/-) Mice,” EMBO J. 29: 4118-4131 (2010); and Yalcin et al., “Foxo3 Is Essential for the Regulation of Ataxia Telangiectasia Mutated and Oxidative Stress-mediated Homeostasis of Hematopoietic Stem Cells,” J. Biol. Chem. 283: 25692-25705 (2008), which are hereby incorporated by reference in their entirety. Flow cytometry acquisition was performed on the BD LSRII, while cell sorting was performed on the BD Influx. All flow cytometry analyses and quantification were done using FlowJo 10 (Treestar).

[3] = tested on: MMP-low and MMP-high HSCs; assay: Glucose uptake assay (2NBDG); format: cell-based, mouse; details: STF-31 (10, 20 μM), 18 hours
Protocol: Glucose Uptake Assay: For measurement of glucose uptake, freshly FACS-purified MMP-low and MMP-high HSCs (at least 2,000 cells pooled in average from 8 mice) were cultured immediately in […] of glucose, glutamine, pyruvate free medium containing 100 or 200 μM 2-(n-(7-nitrobenz-2-oxa-1,3-diazol-4-yl amino)-2-deoxyglucose (2-NBD-Glucose, 2NBDG) for 2 hours. Cells were then washed multiple times in PBS, re-suspended in PBS containing 1 μg/ml DAPI, and analyzed by flow cytometry for 2-NBD glucose fluorescence in the FITC channel. In some experiments cells were cultured in StemSpan medium (StemCell Technology) supplemented with SCF (100 ng/ml) and TPO (20 ng/ml), treated with or without STF-31 ([…]), ConA (25, 50 nM), dimethyl alpha ketoglutarate (MOG, 1 mM), methyl pyruvate (MP, 1 mM) or DMSO, incubated at 37° C. in a humidified atmosphere with 5% CO2 for 6 or 18 hours before removing culture medium from each well, washing extensively and adding […] of glucose, glutamine, pyruvate free medium containing […] of 2 NBDG for 2 hours before washing cells multiple times in PBS and analyzing by flow cytometry. Quantification of 2NBDG uptake was measured by the geometric mean fluorescence intensity (“MFI”) as well as % of 2NBDG^+ cells.

[4] = tested on: MMP-low and MMP-high HSCs; assay: Autophagic vacuole formation / lysosomal localization of mitochondria (confocal immunofluorescence); format: cell-based, mouse; parameters: number of autolysosomes (LC3 co-localization with LAMP1) / co-localization of TOM20 with LAMP1 in MMP-low and MMP-high HSCs: dose or concentration left out as unconfirmed
Description: Immunofluorescence Staining, Imaging, and Analysis—Super Resolution Confocal Microscopy: Images were acquired with a Zeiss LSM 880 confocal microscope equipped with Airyscan Super Resolution Imaging module, using a 100×/1.46 Alpha Plan Apochromat objective lens (Zeiss MicroImaging, Jena, Germany) with “optimal” (Nyquist) XY scaling. Z stacks through the entire cell were acquired at an […] (at least 20 optical sections) using a pixel dwell time of >50 microseconds and field dimensions of […] (20 MMP-low and 20 MMP-high HSCs analyzed). This was followed by Airyscan image processing (set at auto but rarely over 6.2) and analyses using ZEN image acquisition and processing software (ZEN blue/black). Maximum intensity projections shown in the figures were also obtained using ZEN Blue software.
Lysosomal Localization of Mitochondria. FACS-sorted MMP-low and MMP-high HSCs (LSKCD150^+CD48^-MMP-low/-high) were treated with DMSO control or leupeptin […] for 4 hours. HSCs were then fixed and imaged for TOM20 (mitochondria) and LAMP1 (lysosomes).
Autophagic Vacuole Formation. Accumulation of autophagy substrates, Translocase of outer membrane 20 (TOM20) or Map11c3a (LC3), was determined in the presence of amino acid-containing (DMSO) or -starved amino acid-depleted media, v-ATPase inhibitor concanamycin A (ConA 40nM), inhibitor of autophagosome-autolysosome fusion chloroquine (CQ, […]), or protease inhibitor, leupeptin […] following guidelines outlined for study of autophagy (Klionsky et al., “Guidelines for the Use and Interpretation of Assays for Monitoring Autophagy (3rd Edition),” Autophagy 12(1): 1-222 (2016) and Martinez-Lopez et al., “Autophagy Proteins Regulate ERK Phosphorylation,” Nat. Commun. 4: 2799 (2013), which are hereby incorporated by reference in their entirety). In brief, FACS-sorted
MMP-low and MMP- high HSCs were cultured in the presence or absence of indicated inhibitors for 4, 5, or 18 hours following which cells were subjected to immunofluorescence assays for TOM20, LC3 and/or LAMP1 or LAMP2 as described above. Analyses were performed to quantify the turnover of indicated protein in lysosomes by evaluating the accumulation of TOM20 or LC3 in the presence versus absence of an inhibitor. TOM20 and LC3 flux were determined by subtracting the colocalized value of inhibitor-untreated TOM20 or LC3 with LAMP1 from corresponding inhibitor-treated values. Images were captured using a Zeiss LSM880 Airyscan confocal microscope using 100 X objectives (Leica), and percentage colocalization was calculated using the JACoP plugin (NIH ImageJ).
Mitochondrial and Lysosome Morphology: Freshly isolated HSCs were analyzed for mitochondrial morphology. Each individual HSC (150 total) was analyzed by using Arivis Vision 4D software and classified as either fragmented or not fragmented in accordance with number of surfaces. Cells that fulfilled the definition of ‘fragmented’ contained 3 or more individual mitochondrial surfaces (Kask et al., “Fluorescence-intensity Distribution Analysis and Its Application in Biomolecular Detection Technology,” Proc. Natl. Acad. Sci. USA 96(24): 13756-13761 (1999), which is hereby incorporated by reference in its entirety). Lysosomes' fluorescence intensity or area profiling was calculated using ImageJ software enabling the detection of fluorescently labeled […] boundaries (lysosomal marker LAMP1), as reflected by sharp increases or decreases in fluorescence intensity. Channels displaying fluorescence for either mitochondria or lysosomes were thresholded with the IsoData option to delimit the boundaries of mitochondrial networks and lysosome morphology. The resulting outlines were measured using the analyzed particles option to determine the size of distinct particles representing mitochondrial networks or lysosomes. More than 50 cells/condition/experiment were analyzed for lysosomes. […]

[5] = recipients treated with 2-DG 1,000 mg/kg every other day for 30 days, after 4 months

## O=CC[C@@H](O)[C@H](O)[C@H](O)CO [2-DG, 2-Deoxy D-Glucose]
[1]; 2-DG 50 mM, 12 hours
  effect on MMP-low HSCs (viability): did not have much of an effect
[1]; 2-DG 50 mM, 24 h, not in MMP-low
  death of MMP-high HSCs after 24 h: even more pronounced
[1]; 2-DG 50 mM, within 12 hours
  MMP-high HSCs died: over 60%
HSCs of treated mice; 2-DG 750 mg/kg every other day for 6 days
  cellular viability after in vivo treatment: did not have much of an effect
HSCs of treated mice; 2-DG 750 mg/kg every other day for 6 days, intraperitoneal
  overall MMP levels in long-term HSCs: slightly but significantly reduced
HSCs of treated mice; in vivo 2-DG, 6 days
  glucose uptake in HSCs with the highest MMP levels: reduced glucose uptake
[2]; 2-DG-treated recipients
  lineage output in recipients of MMP-high HSCs: balanced production of blood
[2]; long-term (up to 16 weeks), normal diet
  systemic effect in the blood of transplanted mice: no systemic effect was detected
[2]; [5]
  enhancement of in vivo competitive repopulation ability of MMP-high HSCs: over 70 fold
  in vivo competitive repopulation ability of MMP-low HSCs: only subtle effects

## N#CC(C#N)=NNc1cccc(Cl)c1 [CCCP, carbonyl cyanide 3-chlorophenylhydrazone]
HSCs (LSK CD150+CD48-)
  fluorescence of TMRE (probe responsiveness control): decreased

## N#CC(=Cc1ccc(O)cc1)C(=O)O [CHC, a-cyano-4-hydroxycinnamate]
[1]; 10 mM CHC, 6 hours
  decrease of survival in MMP-high HSCs: 80%
  effect on survival of MMP-low HSCs: negligible effect

## CC(C)(C)c1ccc(S(=O)(=O)NCc2ccc(C(=O)Nc3cccnc3)cc2)cc1 [Glut1 inhibitor, STF-31]
[3]
  glucose uptake in MMP-high HSCs: decreased glucose uptake

## COc1ccc(CCN(C)CCCC(C#N)(c2ccc(OC)c(OC)c2)C(C)C)cc1OC (stereo not shown) [Verapamil]
HSCs (LSK CD150+CD48-); Verapamil 25 μM, 50 μM, MRP inhibition
  TMRE levels or proportion of MMP-low HSCs: did not modulate significantly

## CC(=O)N[C@@H](CC(C)C)C(=O)N[C@@H](CC(C)C)C(=O)N[C@H](C=O)CCCNC(=N)N [leupeptin]
[4]; 4 h
  co-localization of TOM20 with LAMP1 in MMP-low and MMP-high HSCs: enhanced similarly
  increase in LC3-positive puncta, MMP-high HSCs: 3.6 fold
  increase in LC3-positive puncta, MMP-low HSCs: 1.6 fold
  number of autolysosomes (LC3 co-localization with LAMP1): greater number of autolysosomes
[4]; ConA 40 nM, leupeptin 100 mM, chloroquine 40 mM, 18 hours, MMP-low and MMP-high HSCs
  autolysosomal degradation (colocalization of LAMP1 with LC3): dramatically prevented autolysosomal degradation
[4]; leupeptin, more evident in MMP-high HSCs
  size of lysosomes in HSCs: further increased the size of lysosomes

## CC[C@H]1/C=C/C=C/C[C@@H](C)[C@H](O)[C@@](C)(O)C(=O)[C@@H](C)[C@H](O)[C@@H](C)C(=O)[C@@H](C)[C@H](O)[C@@H](C)/C=C/C(=O)O[C@@H]2[C@H](C)[C@H](CC1)O[C@]1(CC[C@H](C)[C@H](C[C@@H](C)O)O1)[C@H]2C [oligomycin]
HSCs (LSK CD150+CD48-)
  fluorescence of TMRE (probe responsiveness control): increased
